Measurements taken from patent US20110124626A1, “BENZAZEPINE DERIVATIVES AND THEIR USE AS HISTAMINE H3 ANTAGONISTS” (TAKEDA PHARMACEUTICAL COMPANY LIMITED, priority 2008, published 2011).

Target: T1, human H3 receptor (Homo sapiens, UniProt Q9Y5N1)
T1 construct: expressed in transfected cells
Test: In vitro H3 binding assay (3H-N-α-methyl-histamine competition binding)
Settings: membranes of CHO-K1 cells expressing human H3 receptor; 2 nM 3H-NαMH; read-out: hH3 binding IC50
Protocol: The ability of compounds to bind to the H3 receptor was determined by measuring the reduction in tritiated N-α-methyl-histamine (^3H—NαMH) binding in a competition binding assay. Changes in the levels of bound radio-label were monitored by scintillation counting with a Trilux Microbeta (Perkin Elmer).
Membranes were prepared from CHO-K1 cells stably expressing human H3 receptor; routinely grown as monolayers in Ham's F12 medium (Invitrogen) supplemented with 10% Foetal Clone 111 (Hyclone), 500 μg/ml G418 (Invitrogen), 5 μg/ml blasticidine S (Invivogen) and […] Gentamicin (Sigma) in 5% CO2 at 37° C. Cells were grown to 80-95% confluency, rinsed once with 1×PBS (Invitrogen) and detached by incubating with 1×PBS containing 0.02% EDTA (Sigma) for 10 minutes at room temperature. Cells were collected by centrifugation at 900×g, 4° C. for 10 minutes. Cells were rinsed once with 1×PBS and re-suspended in ice cold homogenisation buffer (50 mM Tris-HCl (pH 7.4), 2.5 mM EDTA, 5 mM MgCl2, 200 mM Sucrose) at 1×10^7 cells/ml and kept on ice. Cells were homogenised on ice and debris removed by centrifugation at 500×g, 4° C. for 5 minutes. The resulting supernatant was centrifuged at 75,600×g, 4° C. for 60 minutes. Membranes were suspended in homogenisation buffer, protein concentration was determined (BCA Protein Assay kit (Pierce)), diluted to 2.2 mg/ml, dispensed into 1 ml aliquots and stored at −80° C.
Membranes were thawed on ice, sonicated with 4 cycles of 20 pulses (50% amplitude, 0.5 pulse) (UP200S Hielscher) on ice, diluted in assay buffer (50 mM Tris-HCl (pH7.4), 5 mM MgCl2) to 62.5 μg/ml. Compound was serially diluted in DMSO before being diluted 1:10 with assay buffer. 5 μg of membrane in 80 μl of assay buffer was added per well of a 96 well polystyrene plate (Corning). […] of compound was added per well. The assay was initiated by the addition of 10 μl of 20 nM ^3H—NαMH per well and incubated for one hour at room temperature with shaking. Total binding was determined in the presence of 1% DMSO and non-specific binding was determined by the inclusion of 1 μM R-α-methyl-histamine (RαMH). Incubations were then filtered through filtermat A (Perkin Elmer) and washed three times with assay buffer. Filtermats were dried at 42° C. for two hours, scintillant added and the level of bound radioactivity determined.
IC50 values for compounds were determined from seven point log scale dose-response studies and represent the concentration of compound required to inhibit 50% of the specific binding of 2 nM ^3H—NαMH (difference between total and non-specific binding). Curves were generated using the average of duplicate wells for each data point and analyzed using nonlinear regression of sigmoidal dose response (variable slope).

T1 sequence (Q9Y5N1 whole entry): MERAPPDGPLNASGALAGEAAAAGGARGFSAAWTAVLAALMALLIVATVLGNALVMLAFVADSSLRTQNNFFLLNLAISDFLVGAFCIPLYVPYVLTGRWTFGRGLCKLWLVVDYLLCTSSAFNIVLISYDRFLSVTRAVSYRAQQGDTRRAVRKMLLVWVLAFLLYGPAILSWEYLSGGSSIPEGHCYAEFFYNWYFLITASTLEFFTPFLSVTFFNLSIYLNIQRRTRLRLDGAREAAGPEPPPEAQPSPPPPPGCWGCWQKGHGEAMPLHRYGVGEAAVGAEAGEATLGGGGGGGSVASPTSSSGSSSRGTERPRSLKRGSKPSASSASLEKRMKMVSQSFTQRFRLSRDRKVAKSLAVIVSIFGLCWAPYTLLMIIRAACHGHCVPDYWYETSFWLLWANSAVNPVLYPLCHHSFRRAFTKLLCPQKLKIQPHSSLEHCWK

Row | SMILES | IC50 [µM]
1 | O=C(NCc1ccccc1)c1ccc2c(c1)CCN(C1CCCC1)CC2 [Example 19, N-Benzyl-3-cyclopentyl-2,3,4,5-tetrahydro-1H-benzo[d]azepine-7-carboxamide] | 0.02
2 | Cc1nn(-c2ccccc2)c(C)c1CNC(=O)c1ccc2c(c1)CCN(C1CCC1)CC2 [Example 110, 3-Cyclobutyl-N-((3,5-dimethyl-1-phenyl-1H-pyrazol-4-yl)methyl)-2,3,4,5-tetrahydro-1H-benzo[d]azepine-7-carboxamide] | 0.017
3 | Cc1occc1CNC(=O)c1ccc2c(c1)CCN(C1CCC1)CC2 [Example 90, 3-cyclobutyl-N-((2-methylfuran-3-yl)methyl)-2,3,4,5-tetrahydro-1H-benzo[d]azepine-7-carboxamide] | 0.01
4 | Cn1ccc2cc(CNC(=O)c3ccc4c(c3)CCN(C3CCC3)CC4)ccc21 [Example 75, 3-Cyclobutyl-N-((1-methyl-1H-indol-5-yl)methyl)-2,3,4,5-tetrahydro-1H-benzo[d]azepine-7-carboxamide] | 0.015
5 | O=C(NCc1ccccc1C(F)(F)F)c1ccc2c(c1)CCN(C1CCC1)CC2 [Example 57, 3-Cyclobutyl-N-(2-(trifluoromethyl)benzyl)-2,3,4,5-tetrahydro-1H-benzo[d]azepine-7-carboxamide] | 0.012
6 | O=C(NCc1ccncc1)c1ccc2c(c1)CCN(C1CCCC1)CC2 [Example 21, 3-Cyclopentyl-N-(pyridin-4-ylmethyl)-2,3,4,5-tetrahydro-1H-benzo[d]azepine-7-carboxamide] | 0.013
7 | CCn1cc(CNC(=O)c2ccc3c(c2)CCN(C2CCC2)CC3)cn1 [Example 95, 3-Cyclobutyl-N-((1-ethyl-1H-pyrazol-4-yl)methyl)-2,3,4,5-tetrahydro-1H-benzo[d]azepine-7-carboxamide] | 0.018
8 | O=C(NCCc1ccccc1)c1ccc2c(c1)CCN(C1CCC1)CC2 [Example 38, 3-Cyclobutyl-N-phenethyl-2,3,4,5-tetrahydro-1H-benzo[d]azepine-7-carboxamide] | 0.009
9 | CCn1cc(Cl)c(CNC(=O)c2ccc3c(c2)CCN(C2CCC2)CC3)n1 [Example 106, N-((4-chloro-1-ethyl-1H-pyrazol-3-yl)methyl)-3-cyclobutyl-2,3,4,5-tetrahydro-1H-benzo[d]azepine-7-carboxamide] | 0.013
10 | O=C(Cc1ccc2c(c1)CCN(C1CCC1)CC2)Nc1ccc(N2CCCC2)nc1 [Example 294, 2-(3-cyclobutyl-2,3,4,5-tetrahydro-1H-3-benzazepin-7-yl)-N-[6-(pyrrolidin-1-yl)pyridin-3-yl]acetamide] | 0.008
11 | O=C(NCc1cc(-c2cccs2)on1)c1ccc2c(c1)CCN(C1CCC1)CC2 [Example 84, 3-Cyclobutyl-N-((5-(thiophen-2-yl)isoxazol-3-yl)methyl)-2,3,4,5-tetrahydro-1H-benzo[d]azepine-7-carboxamide] | 0.01
12 | O=C(NCc1ccccc1Cl)c1ccc2c(c1)CCN(C1CCC1)CC2 [Example 63, N-(2-Chlorobenzyl)-3-cyclobutyl-2,3,4,5-tetrahydro-1H-benzo[d]azepine-7-carboxamide] | 0.006
13 | C[C@@H](O)CN(C)c1ccc(C(=O)NCc2ccc3c(c2)CCN(C2CCC2)CC3)cn1 [Example 316, (R)—N-((3-cyclobutyl-2,3,4,5-tetrahydro-1H-benzo[d]azepin-7-yl)methyl)-6-((2-hydroxypropyl)(methyl)amino)nicotinamide] | 0.0009
14 | COC(=O)c1ccc(CNC(=O)c2ccc3c(c2)CCN(C2CCC2)CC3)cc1 [Example 50, Methyl 4-((3-cyclobutyl-2,3,4,5-tetrahydro-1H-benzo[d]azepine-7-carboxamido)methyl)benzoate] | 0.024
15 | O=C(NCc1ccc2c(c1)CCN(C1CC(O)C1)CC2)c1ccc(N2CCCC2)nc1 (stereo not shown) [Example 287, N-((3-(3-hydroxycyclobutyl)-2,3,4,5-tetrahydro-1H-benzo[d]azepin-7-yl)methyl)-6-(pyrrolidin-1-yl)nicotinamide] | 0.001
16 | Cn1nc(-c2cccs2)cc1CNC(=O)c1ccc2c(c1)CCN(C1CCC1)CC2 [Example 109, 3-Cyclobutyl-N-((1-methyl-3-(thiophen-2-yl)-1H-pyrazol-5-yl)methyl)-2,3,4,5-tetrahydro-1H-benzo[d]azepine-7-carboxamide] | 0.002
17 | CN(Cc1ccc2c(c1)CCN(C1CCC1)CC2)C(=O)c1cnc(N2CCCC2)nc1 [Example 313, N-((3-cyclobutyl-2,3,4,5-tetrahydro-1H-benzo[d]azepin-7-yl)methyl)-N-methyl-2-(pyrrolidin-1-yl)pyrimidine-5-carboxamide] | 0.001
18 | O=C(NCc1ncc[nH]1)c1ccc2c(c1)CCN(C1CCC1)CC2 [Example 113, N-((1H-Imidazol-2-yl)methyl)-3-cyclobutyl-2,3,4,5-tetrahydro-1H-benzo[d]azepine-7-carboxamide] | 0.013
19 | Cc1nn(C)c(C)c1CNC(=O)c1ccc2c(c1)CCN(C1CCC1)CC2 [Example 96, 3-Cyclobutyl-N-((1,3,5-trimethyl-1H-pyrazol-4-yl)methyl)-2,3,4,5-tetrahydro-1H-benzo[d]azepine-7-carboxamide] | 0.018

Further lines, results first:

Row | IC50 [µM] | SMILES
20 | 0.021 | O=C(NC1CCC1)c1ccc2c(c1)CCN(C1CCC1)CC2 [Example 27, N,3-Dicyclobutyl-2,3,4,5-tetrahydro-1H-benzo[d]azepine-7-carboxamide]
21 | 0.004 | Cc1nc(C)c(C(=O)NCc2ccc3c(c2)CCN(C2CCC2)CC3)s1 [Example 268, N-((3-cyclobutyl-2,3,4,5-tetrahydro-1H-benzo[d]azepin-7-yl)methyl)-2,4-dimethylthiazole-5-carboxamide]
22 | 0.005 | O=C(NCc1ccc2c(c1)CCN(C1CCOC1)CC2)c1ccc(N2CC[C@H](F)C2)nc1 (stereo partly drawn) [Example 300, 6-((S)-3-fluoropyrrolidin-1-yl)-N-((3-(tetrahydrofuran-3-yl)-2,3,4,5-tetrahydro-1H-benzo[d]azepin-7-yl)methyl)nicotinamide]
23 | 0.062 | O=C(NCc1ccc2c(c1)CCN(C1CCC1)CC2)[C@H]1C[C@@H](OC2CCOCC2)C1 [Example 319, cis-N-((3-cyclobutyl-2,3,4,5-tetrahydro-1H-benzo[d]azepin-7-yl)methyl)-3-(tetrahydro-2H-pyran-4-yloxy)cyclobutanecarboxamide]
24 | 0.003 | CNc1ncc(C(=O)NCc2ccc3c(c2)CCN(C2CCC2)CC3)cn1 [Example 302, N-((3-cyclobutyl-2,3,4,5-tetrahydro-1H-benzo[d]azepin-7-yl)methyl)-2-(methylamino)pyrimidine-5-carboxamide]
25 | 0.005 | O=C(NCC1CCCC1)c1ccc2c(c1)CCN(C1CCC1)CC2 [Example 30, 3-Cyclobutyl-N-(cyclopentylmethyl)-2,3,4,5-tetrahydro-1H-benzo[d]azepine-7-carboxamide]
26 | 0.036 | CC(C)NC(=O)c1ccc2c(c1)CCN(C1CCC1)CC2 [Example 26, 3-Cyclobutyl-N-isopropyl-2,3,4,5-tetrahydro-1H-benzo[d]azepine-7-carboxamide]
27 | 0.034 | COc1ccc(CNC(=O)c2ccc3c(c2)CCN(C2CCC2)CC3)cc1 [Example 49, 3-Cyclobutyl-N-(4-methoxybenzyl)-2,3,4,5-tetrahydro-1H-benzo[d]azepine-7-carboxamide]
28 | 0.03 | O=C(NCC1CCN(C2CCC2)CC1)c1ccc2c(c1)CCN(C1CCC1)CC2 [Example 11, 3-Cyclobutyl-N-((1-cyclobutylpiperidin-4-yl)methyl)-2,3,4,5-tetrahydro-1H-benzo[d]azepine-7-carboxamide]
29 | 0.004 | O=C(NCc1cccc(Cl)c1)c1ccc2c(c1)CCN(C1CCC1)CC2 [Example 65, N-(3-Chlorobenzyl)-3-cyclobutyl-2,3,4,5-tetrahydro-1H-benzo[d]azepine-7-carboxamide]
30 | 0.037 | CCNC(=O)c1ccc2c(c1)CCN(C1CCC1)CC2 [Example 25, 3-Cyclobutyl-N-ethyl-2,3,4,5-tetrahydro-1H-benzo[d]azepine-7-carboxamide]
31 | 0.019 | Cc1nocc1C(=O)NCc1ccc2c(c1)CCN(C1CCC1)CC2 [Example 276, N-((3-cyclobutyl-2,3,4,5-tetrahydro-1H-benzo[d]azepin-7-yl)methyl)-3-methylisoxazole-4-carboxamide]
